Data as given in patent publication US9447100B2, “Substituted pyrazolo[1,5-A] pyrimidines as calcium receptor modulating agents” (Takeda Pharmaceutical Company Limited, priority 2002, dated 2016).

The molecules below were run against T1, human CaR (Homo sapiens, UniProt P41180) (assay: [35S]-GTPγS binding assay in membrane fraction of human CaR-expressing CHO cells). Conditions: test compound 1 μM; relative to binding with 6 mM calcium only (100×(t′−b)/(t−b)); compounds marked antagonist.
T1 construct: expressed in transfected cells; host or cells: CHO-K1 cells stably transfected with pMSRαneo-CaR (cDNA amplified from human kidney cDNA); membrane fraction used
T1 sequence (P41180 20-1078): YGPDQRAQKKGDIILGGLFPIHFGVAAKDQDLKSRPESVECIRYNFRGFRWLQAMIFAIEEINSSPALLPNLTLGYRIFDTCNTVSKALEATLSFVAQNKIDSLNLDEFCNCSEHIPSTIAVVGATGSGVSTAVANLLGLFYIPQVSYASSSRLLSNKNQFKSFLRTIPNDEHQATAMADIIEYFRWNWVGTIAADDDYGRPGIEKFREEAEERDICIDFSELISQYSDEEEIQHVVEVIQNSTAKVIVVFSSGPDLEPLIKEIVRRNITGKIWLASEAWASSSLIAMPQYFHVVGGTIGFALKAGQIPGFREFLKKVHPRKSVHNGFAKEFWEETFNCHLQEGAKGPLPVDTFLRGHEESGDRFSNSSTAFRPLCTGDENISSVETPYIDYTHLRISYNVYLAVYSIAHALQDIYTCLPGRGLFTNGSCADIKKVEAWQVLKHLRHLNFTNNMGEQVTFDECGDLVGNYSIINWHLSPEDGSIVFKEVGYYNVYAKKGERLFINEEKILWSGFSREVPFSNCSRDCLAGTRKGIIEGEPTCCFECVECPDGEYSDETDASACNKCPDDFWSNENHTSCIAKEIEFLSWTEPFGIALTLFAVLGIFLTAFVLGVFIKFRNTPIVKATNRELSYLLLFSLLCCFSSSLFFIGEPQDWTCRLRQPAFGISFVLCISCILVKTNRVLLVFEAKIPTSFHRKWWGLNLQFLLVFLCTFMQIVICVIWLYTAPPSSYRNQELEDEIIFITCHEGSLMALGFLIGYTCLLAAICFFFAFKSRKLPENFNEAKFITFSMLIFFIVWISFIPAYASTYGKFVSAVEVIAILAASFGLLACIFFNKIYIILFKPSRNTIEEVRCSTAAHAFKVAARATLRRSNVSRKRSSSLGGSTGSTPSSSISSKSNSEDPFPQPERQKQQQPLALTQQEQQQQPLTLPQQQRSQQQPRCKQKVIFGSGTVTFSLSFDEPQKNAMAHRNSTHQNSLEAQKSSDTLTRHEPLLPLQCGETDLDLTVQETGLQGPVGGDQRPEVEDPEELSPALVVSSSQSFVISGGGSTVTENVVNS
Type: biochemical
Procedure: Preparation of membrane fraction is described bellow. The human CaR-expressing CHO cells were inoculated to a F500 flask in 1.8×10^5 cells/flask followed by cultivation for 2 days. The cells were scraped with 10 ml of Phosphate-Buffered Saline containing 0.02% EDTA. After centrifugation (2000 rpm, 10 min) of the cells, the cell pellet was resuspended into 12 ml of homogenate buffer solution (10 mM NaHCO3, 1 mM EDTA, 1× Protease inhibitor cocktail (pH 7.4)) and homogenized by Polytron™ (20000 rpm, 1 min). The cell debris was removed by centrifugation (2000 rpm, 10 min), and then the CaR-expressing cell membrane fraction was collected by ultracentrifugation (Beckman 70 Ti type rotor, 30000 rpm, 1 hour).
The GTPγS binding activity was measured as follows. Twenty μg of the CaR-expressing cell membrane was incubated with test compounds for 10 min. The assays were carried out at room temperature for an hour in a reaction solution mixture containing 20 mM HEPES (pH. 7.4), 100 mM NaCl, 1 mM MgCl2, 167 μg/ml DTT, 5 μM guanosine 5′-diphosphate, 0.4 nM [^35S]-guanosine 5′-(γ-thio)triphosphate ([^35S]-GTPγS) and 6 mM CaCl2. The mixture was filtered through a GF/C filter. After washing fourth with 300 μl of Phosphate-Buffered Saline, the amount of [^35S]-GTPγS bound to the filter was measured using a Top-count scintillation counter.
Effects of test compounds on [^35S]-GTPγS binding were expressed in percentage terms. This was calculated from the equation [100×(t′−b)]/(t−b) where t′, t and b are values of [^35S]-GTPγS binding (dpm), t′ in the presence of 6 mM calcium and the test compound, t in the presence of 6 mM calcium only and b in the absence of both 6 mM calcium and the test compound.
`Cc1ccc(C(OC2CCN(C(=O)c3cnn4c3NC(c3ccccc3)CC4C(F)(F)F)CC2)c2ccc(C)cc2)cc1` (stereo not shown) [Example 312, 3-((4-(bis(4-methylphenyl)methoxy)-1-piperidinyl)carbonyl)-5-phenyl-7-(trifluoromethyl)-4,5,6,7-tetrahydropyrazolo[1,5-a]pyrimidine] was tested, and the “[35S]-GTPγS binding (%)” value was 10 (1 μM) %.
In the case of `CC1(C(F)(F)F)CC(c2ccccc2)Nc2c(C(=O)NC34CC5CC(CC(C5)C3)C4)cnn21` (stereo not shown) [Example 436, N-(1-adamantyl)-7-methyl-5-phenyl-7-(trifluoromethyl)-4,5,6,7-tetrahydropyrazolo[1,5-a]pyrimidine-3-carboxamide], the “[35S]-GTPγS binding (%)” value was 12 (1 μM) %.
For `CCC(CC)(NC(=O)c1cnn2c1NC(c1ccccc1)CC2C(F)(F)F)c1ccc(C(F)(F)F)cc1` (stereo not shown) [Example 310, N-(1-ethyl-1-(4-(trifluoromethyl)phenyl)propyl)-5-phenyl-7-(trifluoromethyl)-4,5,6,7-tetrahydropyrazolo[1,5-a]pyrimidine-3-carboxamide], the “[35S]-GTPγS binding (%)” value was 0 (1 μM) %.
In the case of `CCC(CC)(NC(=O)c1cnn2c1NC(c1ccccc1)CC2(C)C)c1ccc(-c2ccsc2)cc1` (stereo not shown) [Example 423, N-(1-ethyl-1-(4-(3-thienyl)phenyl)propyl)-7,7-dimethyl-5-phenyl-4,5,6,7-tetrahydropyrazolo[1,5-a]pyrimidine-3-carboxamide], the “[35S]-GTPγS binding (%)” value was 0 (1 μM) %.
In the case of `COc1ccc(C(CNC(=O)c2cnn3c2NC(c2ccccc2)CC3C(F)(F)F)c2ccccc2)cc1` (stereo not shown) [Example 318, N-(2-(4-methoxyphenyl)-2-phenylethyl)-5-phenyl-7-(trifluoromethyl)-4,5,6,7-tetrahydropyrazolo[1,5-a]pyrimidine-3-carboxamide], the “[35S]-GTPγS binding (%)” value was 34 (1 μM) %.
`COc1ccc(C(NC(=O)c2cnn3c2NC(c2ccccc2)CC3C)c2ccc(OC)cc2)cc1` (stereo not shown) [Example 335, N-(bis(4-methoxyphenyl)methyl)-7-methyl-5-phenyl-4,5,6,7-tetrahydropyrazolo[1,5-a]pyrimidine-3-carboxamide] was tested, and the “[35S]-GTPγS binding (%)” value was 0 (1 μM) %.

Same assay, conditions: test compound 10 μM; relative to binding with 6 mM calcium only (100×(t′−b)/(t−b)); compound marked agonist
With `O=C(NCC(c1ccccc1)N1CCCC1)c1cnn2c1N[C@@H](c1ccccc1)C[C@H]2C(F)(F)F` (stereo in doubt) [Example 111, 5-phenyl-N-(2-phenyl-2-(1-pyrrolidinyl)ethyl)-7-(trifluoromethyl)-4,5,6,7-tetrahydropyrazolo[1,5-a]pyrimidine-3-carboxamide] the “[35S]-GTPγS binding (%)” value was 256 (10 μM) %.
